{"source": "patent US6572860B1", "about": "“Immunogenic conjugated polypeptide for treatment of herpes simplex virus” (CEL-SCI Corporation, priority 1997, dated 2003)", "key": {"[1]": {"test_system": "HSV-1", "assay": "Intraperitoneal HSV-1 challenge of vaccinated mice, sub-lethal (<LD50) challenge: symptoms and survival", "type": "in vivo, Balb/c mice", "details": "for Symptomatic conditions after viral challenge (symptom score 1-5) / survival after viral challenge: Balb/c mice; for Symptomatic conditions after viral challenge (symptom score 1-5): 2 immunizations of 33 nmoles in Novasome adjuvant, i.p. sub-lethal HSV-1 challenge two weeks later; for survival after viral challenge: sub-lethal i.p. HSV-1 challenge, FIG. 2", "excerpt": "An intraperitoneal challenge model using mice test animal was selected although the predominant presentation of HSV disease is not intraperitoneal since a reproducible course of disease occurs following viral challenge; since the viral challenge dose can be well defined and readily delivered by intraperitoneal injection since the symptoms are readily detected and the course of disease can be qualitatively evaluated; and since the relevant parameter of survival may be readily evaluated. Immune function studies may also be conducted in vitro to further characterize the responses to the test vaccines.\nIn a series of experiments, groups (12 per group) of 3 week old Balb/c female mice (Taconic Farms, Germantown, N.Y.) are immunized and test bled according to the following schedule. Schedule A: immunizations on day 0 and day 14, and two weeks later nine mice of each group are challenged moderately with a lethal dose (<LD50) of HSV (H129 clinical strain) administered intraperitoneally. In this regard, young Balb/c mice show a defined course of disease which progresses from abdominal swelling, lethargy, paraplegia, to death within 1 to 2 weeks. Therefore, the effectiveness of the vaccinations may be readily determined.\n(§1) Each immunization consisted of 33 nmoles of conjugated polypeptide or non-conjugated antigenic peptide H1 (equivalent to 100 μg of the JH1 vaccine). The peptide was mixed with the Novasome liposomal adjuvant (50% v/v). The mice were immunized twice with a two week interval between inoculations. After an additional two weeks, most of the mice received an intraperitoneal challenge with the EKN clinical strain of HSV-1. The mice were evaluated daily for symptoms. […] Blood was obtained from selected mice for ELISA studies prior to immunization and prior to virus challenge. The results are shown in FIG. 1 for symptom (on a daily basis) and in FIG. 2 for survival following vaccination and sub-lethal challenge.\nIn FIG. 1 symptoms were scored daily as:\n(§2) 1. non-specific mild symptoms\n(§3) 2. mild swelling of the abdomen\n(§4) 3. significant swelling of the abdomen and malaise"}, "[2]": {"test_system": "ultraviolet inactivated HSV", "assay": "Delayed type hypersensitivity (DTH), ear pinna swelling at 48 hours (FIG. 3)", "type": "in vivo, Balb/c mice", "details": "vaccinated unchallenged mice, 4 weeks after last immunization, 48 hours after injection of UV inactivated HSV", "experimental": "as §1\nDTH response was evaluated 4 weeks after the last immunization for the vaccinated mice and three unvaccinated HSV challenged mice which had recovered from disease (C). Swelling of the right ear pinna was measured at 48 hours following injection of ultraviolet inactivated HSV and compared to the left ear pinna which had been injected with buffer.\nIn another series of parallel experiments Balb/c female mice (n=9) were vaccinated with the H1 peptide or the JH1, GH1 or LH1 conjugated polypeptides according to the same protocol as for the HSV-1 challenge experiment described above."}, "[3]": {"test_system": "HSV-1", "assay": "Intraperitoneal challenge of vaccinated mice with an LD50 of HSV-1: symptoms and survival", "type": "in vivo", "details": "Balb/c mice 4 wk old, n=6, vaccinated twice, challenged with an LD50 of HSV-1; for disease symptoms (symptom score 1-5): FIG. 4; for survival / death: FIG. 5", "experimental": "Similar tests as described above were carried out. Balb/c mice (4 wk old) (n=6) were unvaccinated (NO VAC) or vaccinated and revaccinated two weeks later with the H1 peptide or the indicated conjugated polypeptide. The mice were then challenged two weeks later with an LD50 of HSV-1. Symptoms were scored daily as:\nas §2, §3, §4\nThe results are shown in FIG. 4 for symptoms, in FIG. 5 for survival and in FIG. 6 for DTH."}, "[4]": {"test_system": "ultraviolet inactivated HSV", "assay": "Delayed type hypersensitivity (DTH), ear pinna swelling at 24, 48 and 96 hours (FIG. 6)", "type": "in vivo, Balb/c mice", "details": "4 weeks after last immunization, 24, 48 and 96 hours after injection of UV inactivated HSV", "experimental": "DTH response was evaluated 4 weeks after the last immunization for the vaccinated mice and three unvaccinated HSV challenged mice which had recovered from disease (Ctrl)\n(§5) The protocol used in this experiment differed slightly from that of FIG. 3. Swelling in the right ear pinna was measured by micrometer prior to and at 24, 48 and 96 hours following injection of ultraviolet inactivated HSV and compared to the left ear pinna which had been injected with an uninfected Vero cell extract."}, "[5]": {"test_system": "HSV-1", "assay": "HSV-1 challenge of mice vaccinated with B1 peptides: survival (FIG. 7)", "type": "in vivo", "details": "C57BI6 mice; for survival (mice surviving of 9): after day 8", "excerpt": "In order to further establish the effectiveness of conjugated peptides according to this invention as effective vaccines for treatment of herpes simplex virus, the HSV epitope B1, which is a T cell epitope (aa 498-505, SSIEFARL) of glycoprotein B found in both HSV-1 or HSV-2 (see Hanke, et al, J. Virol. 65:1177-86; and Bonneau, et al, Virology 195:62-70) was selected and evaluated with either peptide J or peptide G or peptide L as described above. Namely, the conjugated peptides GB1, JB1 and LB1, as described in Table 1 above, were tested under the same conditions as previously described except that in place of the Balb/c mice, C57BI6 mice were vaccinated with the B1 conjugated peptides or non-conjugated B1 peptide (SEQ ID NO:4). The mice immunized with the B1 peptide or with the conjugated peptide LB1 were not protected from HSV-1 challenge (0 of 9 or 1 of 9 survival, respectively, after day 8) and, in fact the B1 and LB1 immunized mice fared worse than the control (unvaccinated) mice (2 of 9 survival after day 8)."}, "[6]": {"test_system": "B1 peptide", "assay": "ELISA of serum antibody response, B1 peptide as antigen", "type": "in vivo, C57BI6 mice", "experimental": "(§6) The antibody responses of vaccinated and unchallenged mice, vaccinated and challenged mice and unvaccinated and challenged mice were measured by ELISA assay. Serum was obtained 7 weeks after the initial immunization or 2 weeks after the virus challenge. B1 peptide or infected cell extracts were bound to the ELISA plate as antigen. Results are shown in Table 3 and were taken from pooled serum taken from 2 or 3 mice. The results were corrected for non-specific responses by subtracting the absorbance obtained towards an unrelated antigen."}, "[7]": {"test_system": "ultraviolet inactivated HSV", "assay": "DTH tests on unchallenged mice immunized with B1 peptides", "type": "in vivo", "details": "3 unchallenged immunized C57BI6 mice", "experimental": "as §5"}, "[8]": {"test_system": "peptide H1", "assay": "ELISA of antibody responses to peptide H1", "type": "in vivo", "details": "immunized Balb/c mice", "experimental": "as §1"}, "[9]": {"test_system": "infected cell extracts", "assay": "ELISA of serum antibody response, infected cell extracts as antigen (antivirus response)", "type": "in vivo, C57BI6 mice", "details": "vaccinated and HSV-1 challenged mice, pooled serum, 2 weeks after virus challenge", "experimental": "as §6"}, "[10]": {"details": "9 challenged mice per group, sub-lethal HSV-1 challenge, FIG. 1"}, "[11]": {"details": "vaccinated and unchallenged mice, pooled serum of 2 or 3 mice, 7 weeks after initial immunization"}}, "note": "“Also recorded” adds a separate entry of the source.", "data": [{"substance": "DLL KN GER IEK VEG GGL YRT FAG NPR A (SEQ ID NO:10) (DLLKNGERIEKVEGGGLYRTFAGNPRA) [JH1, conjugated polypeptide of Peptide J (β-2 microglobulin), GGG spacer and peptide H1 of ICP27]", "values": [{"measurement": "number of mice showing significant symptoms", "setting": "[1]; [10]", "value": "two"}, {"measurement": "number of mice that died", "setting": "[1]; [10]", "value": "one"}, {"measurement": "Symptomatic conditions after viral challenge (symptom score 1-5)", "setting": "[1]; FIG. 1", "value": "protected from disease"}, {"measurement": "survival after viral challenge", "setting": "[1]", "value": "maximal survival"}, {"measurement": "DTH response (redness and swelling of ear pinna)", "setting": "[2]", "value": "DTH was observed"}, {"measurement": "disease symptoms (symptom score 1-5)", "setting": "[3]", "value": "protected from disease symptoms"}, {"measurement": "survival / death", "setting": "[3]", "value": "protected from disease symptoms and death"}, {"measurement": "DTH response (redness and swelling of ear pinna)", "setting": "[4]", "value": "DTH was observed on each day"}]}, {"substance": "LHG PEI LDV PST GGG SSI EFA RL (SEQ ID NO:18) (LHGPEILDVPSTGGGSSIEFARL) [LB1, conjugated polypeptide of Peptide L, GGG spacer and peptide B1]", "values": [{"measurement": "protection from HSV-1 challenge", "setting": "[5]", "value": "not protected"}, {"measurement": "survival (mice surviving of 9)", "setting": "[5]", "value": "1 of 9"}, {"measurement": "B1 PEPTIDE RESPONSE (ELISA absorbance, corrected for non-specific response)", "setting": "[6]; [11]", "value": 0.031}]}, {"substance": "SSIEFARL (SEQ ID NO:4) [B1, non-conjugated antigenic peptide, amino acid residues 498 to 505 from glycoprotein B of HSV-1, reference compound]", "values": [{"measurement": "protection from HSV-1 challenge", "setting": "[5]", "value": "not protected"}, {"measurement": "survival (mice surviving of 9)", "setting": "[5]", "value": "0 of 9"}, {"measurement": "DTH response", "setting": "[7]", "value": "did not exhibit a DTH response"}, {"measurement": "B1 PEPTIDE RESPONSE (ELISA absorbance, corrected for non-specific response)", "setting": "[6]; [11]", "value": 0.031}]}, {"substance": "LHG PEI LDV PST GGG LYR TFA GNP RA (SEQ ID NO:13) (LHGPEILDVPSTGGGLYRTFAGNPRA) [LH1, conjugated polypeptide of Peptide L, GGG spacer and peptide H1]", "values": [{"measurement": "Symptomatic conditions after viral challenge (symptom score 1-5)", "setting": "[1]; FIG. 1", "value": "more severe symptoms throughout the course of infection and death; also recorded: seemed to exacerbate the disease symptoms"}, {"measurement": "survival after viral challenge", "setting": "[1]", "value": "seemed to exacerbate the disease symptoms"}, {"measurement": "DTH response (redness and swelling of ear pinna)", "setting": "[2]", "value": "not"}, {"measurement": "disease symptoms (symptom score 1-5)", "setting": "[3]", "value": "severe symptoms"}, {"measurement": "survival / death", "setting": "[3]", "value": "death"}, {"measurement": "DTH response (redness and swelling of ear pinna)", "setting": "[4]", "value": "Some swelling but no redness was observed for some but not all of the mice"}]}, {"substance": "NGQ EEK AGV VST GLI GGG SSI EFA RL (SEQ ID NO:17) (NGQEEKAGVVSTGLIGGGSSIEFARL) [GB1, conjugated polypeptide of Peptide G, GGG spacer and peptide B1]", "values": [{"measurement": "protection from HSV-1 challenge", "setting": "[5]", "value": "partial protection"}, {"measurement": "survival", "setting": "[5]", "value": 55.5, "unit": "%"}, {"measurement": "survival (mice surviving of 9)", "setting": "[5]", "value": "5 of 9"}, {"measurement": "DTH response", "setting": "[7]", "value": "did not exhibit a DTH response"}, {"measurement": "B1 PEPTIDE RESPONSE (ELISA absorbance, corrected for non-specific response)", "setting": "[6]; vaccinated and HSV-1 challenged mice, pooled serum, 2 weeks after virus challenge", "value": 0.017}, {"measurement": "B1 PEPTIDE RESPONSE (ELISA absorbance, corrected for non-specific response)", "setting": "[6]; [11]", "value": 0.035}]}, {"substance": "LYRTFAGNPRA (SEQ ID NO:1) [H1, non-conjugated antigenic peptide, amino acid residues 322 to 332 of the ICP27 protein of HSV-1, reference compound]", "values": [{"measurement": "Symptomatic conditions after viral challenge (symptom score 1-5)", "setting": "[1]; FIG. 1", "value": "more severe symptoms throughout the course of infection and death; also recorded: seemed to exacerbate the disease symptoms"}, {"measurement": "survival after viral challenge", "setting": "[1]", "value": "seemed to exacerbate the disease symptoms"}, {"measurement": "DTH response (redness and swelling of ear pinna)", "setting": "[2]", "value": "not"}, {"measurement": "disease symptoms (symptom score 1-5)", "setting": "[3]", "value": "severe symptoms"}, {"measurement": "survival / death", "setting": "[3]", "value": "death"}, {"measurement": "DTH response (redness and swelling of ear pinna)", "setting": "[4]", "value": "Some swelling but no redness was observed for some but not all of the mice"}, {"measurement": "Antibody responses to the antigenic peptide by ELISA", "setting": "[8]", "value": "undetectable"}]}, {"substance": "DLL KNG ERI EKV EGG GSS IEF ARL (SEQ ID NO:16) (DLLKNGERIEKVEGGGSSGSSIEFARL) [JB1, conjugated polypeptide of Peptide J, GGG spacer and peptide B1 of glycoprotein B]", "values": [{"measurement": "protection from HSV-1 challenge", "setting": "[5]", "value": "partial protection"}, {"measurement": "survival", "setting": "[5]", "value": 44.4, "unit": "%"}, {"measurement": "survival (mice surviving of 9)", "setting": "[5]", "value": "4 of 9"}, {"measurement": "DTH response", "setting": "[7]", "value": "exhibited a DTH response"}, {"measurement": "B1 PEPTIDE RESPONSE (ELISA absorbance, corrected for non-specific response)", "setting": "[6]; [11]", "value": 0.025}, {"measurement": "ANTIVIRUS RESPONSE (ELISA absorbance, corrected for non-specific response)", "setting": "[9]", "value": 0.445}]}, {"substance": "NGQ EEK AGV VST GLI GGG LYR TFA GNP RA (SEQ ID NO:12) (NGQEEKAGVVSTGLIGGGLYRTFAGNPRA) [GH1, conjugated polypeptide of Peptide G, GGG spacer and peptide H1]", "values": [{"measurement": "Symptomatic conditions after viral challenge (symptom score 1-5)", "setting": "[1]; FIG. 1", "value": "more severe symptoms throughout the course of infection and death; also recorded: seemed to exacerbate the disease symptoms"}, {"measurement": "survival after viral challenge", "setting": "[1]", "value": "seemed to exacerbate the disease symptoms"}, {"measurement": "DTH response (redness and swelling of ear pinna)", "setting": "[2]", "value": "not"}, {"measurement": "disease symptoms (symptom score 1-5)", "setting": "[3]", "value": "severe symptoms"}, {"measurement": "survival / death", "setting": "[3]", "value": "death"}, {"measurement": "DTH response (redness and swelling of ear pinna)", "setting": "[4]", "value": "Some swelling but no redness was observed for some but not all of the mice"}]}]}
